Values quoted from earlier work as cited in patent publication US20090022786A1, “Oral pharmaceutical dosage form and manufacturing method thereof” (YUNG SHIN PHARM. IND. CO., LTD., priority 2007, published 2009).
Where a name gives a salt, the structure may show the parent alone. Read-outs that look alike come from different tables or passages of the source.

What was measured:
[1] = not given; remark: listed apart in the source
[2] = not given; remark: listed apart in the source
[3] = not given; remark: listed apart in the source
gastric acid secretion = conditions: oral
[4] = as glucuronate- or sulfate-associated form

Row | Structure (SMILES) | Fraction eliminated with the faeces after biliary secretion [4] | Fraction eliminated with urine [4] | Binding to plasma protein (in vivo) | Half-life (in vivo) [min] | Fraction entering systematic circulation (oral) | Peak value of plasma concentration (oral single dose of 50 mg) [µg/mL] | Time of maximum plasma concentration (oral single dose of 50 mg) [h] | Stability to humidity and light ([1]; humidity and light) | Solubility in chloroform ([2]; chloroform) | Solubility in ethanol ([2]; ethanol) | Solubility in methanol ([2]; methanol) | Solubility in water [2] | Stability at room temperature ([1]; room temperature) | Fraction eliminated with urine ([3]; in 24 hours) | Elimination half-life ([3]; in vivo) [min] | Fraction eliminated with the faeces ([3]; in vivo) [%] | Absorption after oral administration ([3]; oral) | Time of maximum plasma concentration ([3]; oral) [min] | Time to inhibition of gastric acid secretion (gastric acid secretion) [min]
1 | O=C(O)Cc1ccccc1Nc1c(Cl)cccc1Cl [Diclofenac sodium, 2-[(2,6-dichlorophenyl)amino] benzene acetic acid, monosodium salt] | 1/30 | ⅔ | More than 90% | 60 to 120 | 50-60% | 1.5 | 1 to 2 | accessible to be destroyed by humidity and light | extremely insoluble | soluble | soluble | somewhat | – | – | – | – | – | – | –
2 | CCCCC(C)(O)C/C=C/[C@H]1[C@H](O)CC(=O)[C@@H]1CCCCCCC(=O)OC (mixture of isomers) [Misoprostol, (±) methyl 11α,16-dihydroxy-16-methyl-9-oxoprost-13E-en-1-oate] | – | – | – | – | – | – | – | – | – | – | – | soluble | very unstable | 64-73% | 20 to 40 | 15 | rapidly absorbed | 15 to 30 | ≤ 30
